Results on 47 compounds are retold here after paper PMC3409642 (Pharmaceutical research, 2012).

Values joined by “and” are separate entries in the source; they are usually repeats but may differ in a detail not shown here. Equal entries are not always repeated.

For one data set, the target named is T1, UGT1A9 (Homo sapiens, UniProt O60656).
T1 sequence (O60656 26-530): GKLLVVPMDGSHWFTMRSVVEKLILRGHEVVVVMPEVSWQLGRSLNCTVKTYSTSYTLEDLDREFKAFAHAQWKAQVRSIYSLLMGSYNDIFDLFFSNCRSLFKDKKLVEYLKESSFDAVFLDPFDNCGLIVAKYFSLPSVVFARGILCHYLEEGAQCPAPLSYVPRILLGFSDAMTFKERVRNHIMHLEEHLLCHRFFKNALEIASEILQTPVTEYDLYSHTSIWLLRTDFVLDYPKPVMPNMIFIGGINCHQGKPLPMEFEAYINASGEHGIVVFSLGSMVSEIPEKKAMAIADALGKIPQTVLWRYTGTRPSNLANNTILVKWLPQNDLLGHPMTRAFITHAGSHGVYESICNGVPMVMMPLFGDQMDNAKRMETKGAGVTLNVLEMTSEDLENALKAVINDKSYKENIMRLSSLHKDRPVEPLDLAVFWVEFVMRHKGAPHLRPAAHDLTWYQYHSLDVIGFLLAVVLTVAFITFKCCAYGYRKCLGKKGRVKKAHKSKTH
As to the kind of experiment: Kinetic profiling of glucuronidation by expressed human UGT1A9. To be noted: human, expressed human UGT1A9 (Supersomes), pH 7.4.
By Km is commonly meant the substrate concentration at which the rate is half of its maximum. Turning to `O=C1C[C@@H](c2ccc(O)cc2)Oc2cc(O)cc(O)c21` [compound 27, Narigenin], the Michaelis-Menten constant (Km) was determined as 3.34 µM.

The data set is the same for the next values; noted with them: incubating compound with UGT1A9.
Turning to `Nc1ccc(C(=O)O)c(O)c1` [aminosalicylic acid, reference compound], the “glucuronide metabolite formation on incubation with UGT1A9 (non-substrate)” value is listed as “no metabolite can be detected”.

The data set is the same for the next values; noted with them: log of experimental CLint (μl/mg/min).
Consider `O=C(CCc1ccc(O)cc1)c1c(O)cc(O)cc1O` [7.a, Phloretin], for which the “Log (CLint) (Actual)” value was found to be 2.87.

Take `CCCOc1ccc(O)cc1` [compound 125, 4-Propoxyphenol]: the “Log (CLint) (Actual)” value came to 1.00.

With `O=C1C[C@@H](c2ccc(O)cc2)Oc2cc(O)cc(O)c21` [compound 27, Narigenin], the “Log (CLint) (Actual)” value was determined as 3.18.

In the case of `COc1ccc2c(=O)c(-c3ccccc3)coc2c1O` [compound 99, 8-Hydroxy-7-methoxyisoflavone], the “Log (CLint) (Actual)” value is recorded as 3.57.

For `COc1ccc(-c2oc3cc(OC)ccc3c(=O)c2O)cc1` [compound 79, 3-Hydroxy-7,4′-dimethoxyflavone], the “Log (CLint) (Actual)” value came to 4.66.

Consider `Cc1ccc2oc(=O)cc(O)c2c1` [compound 11, 4-Hydroxy-6-methylcoumarin], for which the “Log (CLint) (Actual)” value amounted to 0.59.

For the compound `CCCc1ccc(O)cc1` [compound 126, 4-n-Propylphenol], the “Log (CLint) (Actual)” value was found to be 1.62.

In the case of `COc1cc(-c2oc3cc(O)ccc3c(=O)c2O)ccc1O` [compound 86, Geraldol], the “Log (CLint) (Actual)” value amounted to 3.60.

Turning to `Oc1ccc(C2CCCC2)cc1` [compound 112, 4-Cyclopentylphenol], the “Log (CLint) (Actual)” value was determined as 1.78.

Turning to `COc1cc(-c2cc(=O)c3c(O)cc(O)cc3o2)cc(OC)c1OC` [compound 33, 5,7-Dihydroxy-3′,4′,5′-trimethoxyflavone], the “Log (CLint) (Actual)” value is reported as 2.93.

As to `COc1cc2oc(=O)cc(-c3ccccc3)c2cc1O` [compound 12, 6-Hydroxy-7-methoxyl-4-phenylcoumarin], the “Log (CLint) (Actual)” value stood at 1.07.

On to `COc1ccc(-c2oc3cc(O)cc(O)c3c(=O)c2OC)cc1OCc1ccccc1` [compound 30, 3′-Benzyloxy-5,7-dihydroxy-3,4′-dimethoxyflavone], for which the “Log (CLint) (Actual)” value is listed as 3.22.

With `O=c1c(O)c(-c2ccc(O)cc2)oc2ccc(O)cc12` [compound 62, 3,6,4′-Trihydroxyflavone], the “Log (CLint) (Actual)” value is 4.34.

Take `O=c1cc(-c2ccccc2O)oc2cc(O)cc(O)c12` [compound 40, 5,7,2′-Trihydroxyflavone]: the “Log (CLint) (Actual)” value was 3.57.

Consider `O=[N+]([O-])c1ccc(O)cc1` [compound 120, 4-Nitrophenol], for which the “Log (CLint) (Actual)” value amounted to 1.56.

As to `COc1ccc(/C=C\c2cc(OC)c(OC)c(OC)c2)cc1O` [compound 136, Combretastatin A4], the “Log (CLint) (Actual)” value is 3.33.

Take `CC(=O)CC(c1ccccc1)c1c(O)c2cccc(O)c2oc1=O` (centres unmarked) [compound 13, 8-Hydroxywarfarin]: the “Log (CLint) (Actual)” value is on record as 1.40.

For `CCCCOC(=O)c1ccc(O)cc1` [compound 129, Butyl-4-hydroxybenzoate], the “Log (CLint) (Actual)” value came to 1.51.

Turning to `O=c1cc(-c2cccc(O)c2)oc2cc(O)ccc12` [compound 43, 7,3′-Dihydroxyflavone], the “Log (CLint) (Actual)” value is listed as 2.74.

For `COc1ccc(-c2cc(=O)c3ccc(O)cc3o2)cc1` [compound 47, 7-Hydroxy-4′-methoxyflavone], the “Log (CLint) (Actual)” value is 2.36.

With `O=c1cc(-c2ccccc2O)oc2ccccc12` [compound 28, 2′-Hydroxyflavone], the “Log (CLint) (Actual)” value is recorded as 2.27.

As for `COc1cc(/C=C/c2ccc(O)cc2)cc(OC)c1` [compound 137, Pterostilbene], the “Log (CLint) (Actual)” value is listed as 0.05.

For `Oc1ccc(F)cc1` [compound 115, 4-Fluorophenol], the “Log (CLint) (Actual)” value turned out to be 1.18.

For `O=c1cc(-c2ccc(O)c(O)c2)oc2ccc(O)cc12` [compound 35, 6,3′,4′-Trihydroxyflavone], the “Log (CLint) (Actual)” value turned out to be 3.54.

Take `Cc1cc(=O)oc2cc(O)ccc12` [compound 10, 4-Methylumbelliferone]: the “Log (CLint) (Actual)” value was found to be 2.48.

As for `O=c1c(O)c(-c2cc(O)c(O)c(O)c2)oc2cc(O)cc(O)c12` [90.a, Myricetin], the “Log (CLint) (Actual)” value worked out at 2.90.

With `COc1c(O)cc(O)c2c(=O)cc(-c3ccccc3)oc12` [compound 58, Wogonin], the “Log (CLint) (Actual)” value was 3.60.

As to `COc1ccccc1-c1oc2ccccc2c(=O)c1O` [compound 72, 3-Hydroxy-2′-methoxyflavone], the “Log (CLint) (Actual)” value turned out to be 4.25.

As for `COc1cc(-c2oc3cc(O)ccc3c(=O)c2O)cc(OC)c1OC` [67.a, 3,7-Dihydroxy-3′,4′,5′-trimethoxyflavone], the “Log (CLint) (Actual)” value was found to be 3.66.

With `O=c1cc(-c2ccc(O)cc2)oc2ccccc12` [compound 32, 4′-Hydroxyflavone], the “Log (CLint) (Actual)” value stood at 1.83.

As to `O=c1c(O)c(-c2ccccc2)oc2cc(O)ccc12` [68.a, 3,7-Dihydroxyflavone], the “Log (CLint) (Actual)” value is 4.32.

Consider `O=c1c(O)c(-c2cccc(O)c2)oc2ccccc12` [compound 60, 3,3′-Dihydroxyflavone], for which the “Log (CLint) (Actual)” value came to 4.44.

With `O=c1ccoc2cc(O)ccc12` [compound 8, 7-Hydroxychromone], the “Log (CLint) (Actual)” value worked out at 0.91.

With `COc1ccccc1-c1cc(=O)c2ccc(O)cc2o1` [compound 44, 7-Hydroxy-2′-methoxyflavone], the “Log (CLint) (Actual)” value is recorded as 3.00.

On to `COc1cc(/C=C/C(=O)CC(=O)/C=C/c2ccc(O)c(OC)c2)ccc1O` [compound 15, Curcumin], for which the “Log (CLint) (Actual)” value was determined as 1.74.

On to `COc1ccc2c(=O)c(O)c(-c3ccccc3)oc2c1` [compound 80, 3-Hydroxy-7-methoxyflavone], for which the “Log (CLint) (Actual)” value is reported as 4.57.

With `Oc1ccc(-c2ccccc2)cc1` [compound 123, 4-Phenylphenol], the “Log (CLint) (Actual)” value was 1.34.

Turning to `COc1cc2ccc(=O)oc2cc1O` [compound 14, Scopoletin], the “Log (CLint) (Actual)” value turned out to be 2.28.

For `COc1c(C)c2c(c(O)c1C/C=C(\C)CCC(=O)O)C(=O)OC2` [compound 142, Mycophenolic Acid, reference compound], the “Log (CLint) (Actual)” value came to 1.96.

`O=C(/C=C/c1ccc(O)cc1)CC(=O)/C=C/c1ccc(O)cc1` [compound 17, Bisdemethoxycurcumin]: the “Log (CLint) (Actual)” value came to 0.90.

For `CC(=O)c1ccc(O)cc1` [compound 121, 4-Hydroxyacetophenone], the “Log (CLint) (Actual)” value was determined as 1.15.

Consider `CCOc1ccc(O)cc1` [compound 113, 4-Ethoxyphenol], for which the “Log (CLint) (Actual)” value was determined as 0.92.

Regarding `O=C(O)/C=C/c1ccc(O)c(O)c1` [97.a, Caffeic Acid], the “Log (CLint) (Actual)” value came to 1.04.

`COc1cc2c(=O)c(-c3ccc(O)cc3)coc2cc1O` [compound 106, Glycitein]: the “Log (CLint) (Actual)” value amounted to 2.44.

Still in this data set, the particulars now being: log of experimental CLint (μl/mg/min); listed as 7.b.
With `O=C(CCc1ccc(O)cc1)c1c(O)cc(O)cc1O` [7.a, Phloretin], the “Log (CLint) (Actual)” value is reported as 3.17.

The same data set, now with this note: log of experimental CLint (μl/mg/min); listed as 68.b.
Turning to `O=c1c(O)c(-c2ccccc2)oc2cc(O)ccc12` [68.a, 3,7-Dihydroxyflavone], the “Log (CLint) (Actual)” value was 3.13.

Still in this data set, the particulars now being: log of experimental CLint (μl/mg/min); listed as 69.b.
Take `COc1ccc(-c2oc3cc(O)ccc3c(=O)c2O)cc1OC` [69.a, 3,7-Dihydroxy-3′,4′-dimethoxyflavone]: the “Log (CLint) (Actual)” value is given as 1.00.

The same data set, now with this note: log of experimental CLint (μl/mg/min); listed as 90.b.
On to `O=c1c(O)c(-c2cc(O)c(O)c(O)c2)oc2cc(O)cc(O)c12` [90.a, Myricetin], for which the “Log (CLint) (Actual)” value came to 3.36.

Staying with this data set, now noted: log of experimental CLint (μl/mg/min); listed as 90.c.
With `O=c1c(O)c(-c2cc(O)c(O)c(O)c2)oc2cc(O)cc(O)c12` [90.a, Myricetin], the “Log (CLint) (Actual)” value was found to be 3.69.

The same data set, now with this note: log of experimental CLint (μl/mg/min); listed as 97.b.
With `O=C(O)/C=C/c1ccc(O)c(O)c1` [97.a, Caffeic Acid], the “Log (CLint) (Actual)” value is reported as 0.30.

The same data set, now with this note: pH 7.4.
A word on the Vmax: it is the top rate of the reaction or transport when substrate is in excess. For `N#C/C(=C\c1ccc(O)c(O)c1)C(=O)NCc1ccccc1` [23.a, Tyrphostin B42], the maximum rate (Vmax) is 3677 pmol/mg/min and 2008 pmol/mg/min.
